Assay results published in PubChem BioAssay AID256 (DTP/NCI, 2004).
Values joined by “and” are separate entries in the source; they are usually repeats but may differ in a detail not shown here. Equal entries are not always repeated. Toxic doses and inconclusive results are not listed.

System: CD2F1 mice, L1210 leukemia ip, survival T/C
Assay: NCI In Vivo Anticancer Drug Screen. Data for tumor model L1210 Leukemia (intraperitoneal) in CD2F1 (CDF1) mice
Conditions: higher = longer survival
Procedure, shortened: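 Transplantable tumor in mice; compound-treated vs vehicle-treated groups. Read-out = treated/control ratio of the measured endpoint.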

With O=c1[nH]c(=S)nc2nc[nH]n12 as the molecule, how does the T/C (endpoint: mean survival time, dose: 12.5 mg/kg/injection, schedule: Q01DX001 (ip), vehicle: carboxymethylcellulose (CMC)) read?
Its T/C is 97 % of control.

And the T/C (endpoint: mean survival time, dose: 25.0 mg/kg/injection, schedule: Q01DX001 (ip), vehicle: carboxymethylcellulose (CMC))?
The T/C was 100 % of control.

What about the T/C (endpoint: mean survival time, dose: 50.0 mg/kg/injection, schedule: Q01DX001 (ip), vehicle: carboxymethylcellulose (CMC)) of the same molecule?
The T/C was 104 % of control.

What about the T/C (endpoint: mean survival time, dose: 100.0 mg/kg/injection, schedule: Q01DX001 (ip), vehicle: carboxymethylcellulose (CMC)) of the same molecule?
The T/C was 97 % of control.

What about the T/C (endpoint: mean survival time, dose: 200.0 mg/kg/injection, schedule: Q01DX001 (ip), vehicle: carboxymethylcellulose (CMC)) of the same molecule?
The T/C was 97 % of control.

For CC(=O)OC1CCC2(C)C(CCC3(C)C2CCC2C4C5OC(=O)C4(CCC5(C)C)CCC23C)C1(C)C (stereo unspecified), which T/C (endpoint: mean survival time, dose: 6.25 mg/kg/injection, schedule: Q04DX002 (ip), vehicle: saline with Tween-80) is on record?
Its T/C is 114 % of control.

What about the T/C (endpoint: mean survival time, dose: 12.5 mg/kg/injection, schedule: Q04DX002 (ip), vehicle: saline with Tween-80) of the same molecule?
The T/C was 100 % of control.

What about the T/C (endpoint: mean survival time, dose: 25.0 mg/kg/injection, schedule: Q04DX002 (ip), vehicle: saline with Tween-80) of the same molecule?
Its T/C is 100 % of control.

What about the T/C (endpoint: mean survival time, dose: 50.0 mg/kg/injection, schedule: Q04DX002 (ip), vehicle: saline with Tween-80) of the same molecule?
Its T/C is 88 % of control.

And the T/C (endpoint: mean survival time, dose: 100.0 mg/kg/injection, schedule: Q04DX002 (ip), vehicle: saline with Tween-80)?
The T/C was 98 % of control.

For CCOC(=O)C(=O)Cc1cc(=O)cc(C)o1, which T/C (endpoint: mean survival time, dose: 100.0 mg/kg/injection, schedule: Q01DX009 (ip), vehicle: saline with Tween-80) is on record?
The T/C was 95 % of control.

What about the T/C (endpoint: mean survival time, dose: 200.0 mg/kg/injection, schedule: Q01DX009 (ip), vehicle: saline with Tween-80) of the same molecule?
The T/C was 92 % of control.

And the T/C (endpoint: mean survival time, dose: 400.0 mg/kg/injection, schedule: Q01DX009 (ip), vehicle: saline with Tween-80)?
The T/C was 93 % of control.

CC(=O)OC1COC(NC(=O)N(CCCl)N=O)C(OC(C)=O)C1OC(C)=O (stereo unspecified) was tested. Which T/C (endpoint: median survival time, dose: 0.75 mg/kg/injection, schedule: Q01DX009 (ip), vehicle: saline with Tween-80) did it give?
Its T/C is 115 % of control and 122 % of control and 111 % of control.

And the T/C (endpoint: median survival time, dose: 3.0 mg/kg/injection, schedule: Q01DX009 (ip), vehicle: saline with Tween-80)?
Its T/C is 150 % of control and 166 % of control.

And the T/C (endpoint: median survival time, dose: 6.0 mg/kg/injection, schedule: Q01DX009 (ip), vehicle: saline with Tween-80)?
The T/C was 168 % of control and 191 % of control and 205 % of control.

What about the T/C (endpoint: median survival time, dose: 12.0 mg/kg/injection, schedule: Q01DX009 (ip), vehicle: saline with Tween-80) of the same molecule?
Its T/C is 315 % of control and 322 % of control and 674 % of control.

With CN(Cc1cnc2nc(N[Si](C)(C)C)nc(N[Si](C)(C)C)c2n1)c1ccc(C(=O)NC(CCC(=O)O[Si](C)(C)C)C(=O)O[Si](C)(C)C)cc1 (stereo unspecified) as the molecule, how does the T/C (endpoint: mean survival time, dose: 1.25 mg/kg/injection, schedule: Q01DX009 (ip), vehicle: saline) read?
The T/C was 159 % of control.

What about the T/C (endpoint: mean survival time, dose: 1.9 mg/kg/injection, schedule: Q04DX003 (ip), vehicle: saline) of the same molecule?
Its T/C is 117 % of control.

And the T/C (endpoint: mean survival time, dose: 2.5 mg/kg/injection, schedule: Q01DX009 (ip), vehicle: saline)?
Its T/C is 172 % of control.

And the T/C (endpoint: mean survival time, dose: 7.5 mg/kg/injection, schedule: Q04DX003 (ip), vehicle: saline)?
The T/C was 159 % of control.

What about the T/C (endpoint: mean survival time, dose: 15.0 mg/kg/injection, schedule: Q04DX003 (ip), vehicle: saline) of the same molecule?
Its T/C is 178 % of control.

What about the T/C (endpoint: mean survival time, dose: 20.0 mg/kg/injection, schedule: Q01DX009 (ip), vehicle: saline) of the same molecule?
Its T/C is 103 % of control.

What about the T/C (endpoint: mean survival time, dose: 30.0 mg/kg/injection, schedule: Q04DX003 (ip), vehicle: saline) of the same molecule?
Its T/C is 193 % of control.

What about the T/C (endpoint: mean survival time, dose: 60.0 mg/kg/injection, schedule: Q04DX003 (ip), vehicle: saline) of the same molecule?
The T/C was 155 % of control.

What about the T/C (endpoint: mean survival time, dose: 120.0 mg/kg/injection, schedule: Q04DX003 (ip), vehicle: saline) of the same molecule?
Its T/C is 117 % of control.

CCCCCCC(C)NCCOC(=O)c1ccccc1 (stereo unspecified) was tested. Which T/C (endpoint: mean survival time, dose: 75.0 mg/kg/injection, schedule: Q01DX001 (ip), vehicle: saline) did it give?
The T/C was 103 % of control.

What about the T/C (endpoint: mean survival time, dose: 150.0 mg/kg/injection, schedule: Q01DX001 (ip), vehicle: saline) of the same molecule?
Its T/C is 102 % of control.

And the T/C (endpoint: mean survival time, dose: 300.0 mg/kg/injection, schedule: Q01DX001 (ip), vehicle: saline)?
Its T/C is 97 % of control.

Which T/C (endpoint: mean survival time, dose: 25.0 mg/kg/injection, schedule: Q01DX001 (ip), vehicle: saline) does the source give for C[S+](C)CC(C)(C)CI here?
The T/C was 100 % of control.

What about the T/C (endpoint: mean survival time, dose: 50.0 mg/kg/injection, schedule: Q01DX001 (ip), vehicle: saline) of the same molecule?
Its T/C is 110 % of control.

What about the T/C (endpoint: mean survival time, dose: 100.0 mg/kg/injection, schedule: Q01DX001 (ip), vehicle: saline) of the same molecule?
Its T/C is 100 % of control and 101 % of control.

How did the T/C (endpoint: median survival time, dose: 20.0 mg/kg/injection, schedule: Q04DX003 (ip), vehicle: saline) turn out when CC(C)([NH-])C[NH-].O=C(O)CCO.[Pt+2] was run?
The T/C was 255 % of control.

And the T/C (endpoint: median survival time, dose: 20.0 mg/kg/injection, schedule: Q04DX003 (ip), vehicle: water)?
Its T/C is 173 % of control.

What about the T/C (endpoint: median survival time, dose: 40.0 mg/kg/injection, schedule: Q04DX003 (ip), vehicle: saline) of the same molecule?
Its T/C is 232 % of control.

And the T/C (endpoint: median survival time, dose: 40.0 mg/kg/injection, schedule: Q04DX003 (ip), vehicle: water)?
Its T/C is 170 % of control.

What about the T/C (endpoint: median survival time, dose: 80.0 mg/kg/injection, schedule: Q04DX003 (ip), vehicle: saline) of the same molecule?
The T/C was 116 % of control.

What about the T/C (endpoint: median survival time, dose: 80.0 mg/kg/injection, schedule: Q04DX003 (ip), vehicle: water) of the same molecule?
The T/C was 90 % of control.

What does the source list for C[PH+](C)C.C[PH+](C)C.[Au]?
T/C (endpoint: median survival time, dose: 0.62 mg/kg/injection, schedule: Q01DX009 (ip), vehicle: saline): 101 % of control; T/C (endpoint: median survival time, dose: 1.25 mg/kg/injection, schedule: Q01DX009 (ip), vehicle: saline): 101 % of control; T/C (endpoint: median survival time, dose: 2.5 mg/kg/injection, schedule: Q01DX009 (ip), vehicle: saline): 101 % of control; T/C (endpoint: median survival time, dose: 5.0 mg/kg/injection, schedule: Q01DX009 (ip), vehicle: saline): 101 % of control; T/C (endpoint: median survival time, dose: 10.0 mg/kg/injection, schedule: Q01DX009 (ip), vehicle: saline): 101 % of control

With Oc1ccccc1C=NCCC[N-]CCCN=Cc1ccccc1O.[Co] as the molecule, how does the T/C (endpoint: mean survival time, dose: 6.25 mg/kg/injection, schedule: Q01DX009 (ip), vehicle: saline) read?
Its T/C is 102 % of control and 103 % of control.

And the T/C (endpoint: mean survival time, dose: 12.5 mg/kg/injection, schedule: Q01DX009 (ip), vehicle: saline)?
The T/C was 100 % of control and 103 % of control.

What about the T/C (endpoint: mean survival time, dose: 25.0 mg/kg/injection, schedule: Q01DX009 (ip), vehicle: saline) of the same molecule?
Its T/C is 110 % of control and 111 % of control.

What about the T/C (endpoint: mean survival time, dose: 50.0 mg/kg/injection, schedule: Q01DX009 (ip), vehicle: saline) of the same molecule?
The T/C was 113 % of control and 100 % of control.

What about the T/C (endpoint: mean survival time, dose: 100.0 mg/kg/injection, schedule: Q01DX009 (ip), vehicle: saline) of the same molecule?
The T/C was 104 % of control.

What does the source list for CCC(C)NC(=O)C1C2CCC(C2)C1C(=O)NC(C)CC (stereo unspecified)?
T/C (endpoint: mean survival time, dose: 100.0 mg/kg/injection, schedule: Q04DX003 (ip), vehicle: saline with Tween-80): 98 % of control; T/C (endpoint: mean survival time, dose: 200.0 mg/kg/injection, schedule: Q04DX003 (ip), vehicle: saline with Tween-80): 98 % of control; T/C (endpoint: mean survival time, dose: 400.0 mg/kg/injection, schedule: Q04DX003 (ip), vehicle: saline with Tween-80): 102 % of control
